Structures can show the parent of a compound that is named as a salt.

One assay deals with hPSC-SCs.
Details: not given
In turn, `CN(C)C(=O)Oc1cccc([N+](C)(C)C)c1` [Neostigmine bromide] showed a z.score.t of 1.018. On to `CNCCC(Oc1ccccc1OC)c1ccccc1` (stereo not drawn) [Nisoxetine hydrochloride], for which the z.score.t was 0.4318. On the same count and under the same terms, the result for `Cl.Cl.c1ccc2c3c([nH]c2c1)C1C2CCC(C4CCCNC42)N1CC3` (stereo not drawn) [Nitrarine dihydrochloride] reads 0.3022; that for `CCN(CC)CCOC(=O)C1(c2ccc([N+](=O)[O-])cc2)CCCC1.Cl` [Nitrocaramiphen hydrochloride], 1.242. On the same count and under the same terms, as for `C[C@@H]1[C@H](O)[C@@H](C)/C=C/C=C/CC/C=C/C=C/C=C/C=C/C(O[C@H]2O[C@H](C)[C@@H](O)[C@H](N)[C@@H]2O)CC2O[C@](O)(CC(O)C(O)CCC(O)CC(O)CC(O)CC(=O)O[C@H]1C)CC(O)C2C(=O)O` (stereo partly drawn) [Nystatine], the figure is 1.992; as for `CCCCc1ccc2[nH]c(NC(=O)OC)nc2c1` [Parbendazole], −1.543.

Still in this assay, the particulars now being: HTS viability of hPSC-SCs in the presence of 30 mM glucose; Prestwick library; Table S4.
As to `CN1CCOC(c2ccccc2)c2ccccc2C1` (stereo not drawn) [Nefopam hydrochloride], the z.score.t is listed as −0.3733. The same measure, in the same setting: the result for `NC[C@@H]1O[C@H](O[C@H]2[C@@H](O)[C@H](O[C@@H]3[C@@H](O)[C@H](N)C[C@H](N)[C@H]3O[C@H]3O[C@H](CN)[C@@H](O)[C@H](O)[C@H]3N)O[C@@H]2CO)[C@H](N)[C@@H](O)[C@@H]1O.O=S(=O)(O)O` [Neomycin sulfate] reads −0.6492; that for `O=C(O)c1cccnc1` [Niacin], 0.4105; that for `O=C(CCNNC(=O)c1ccncc1)NCc1ccccc1` [Nialamide], −0.7018.

For the compound `COC(=O)C1=C(C)NC(C)=C(C(=O)OCCN(C)Cc2ccccc2)C1c1cccc([N+](=O)[O-])c1` (stereo not drawn) [Nicardipine hydrochloride], the z.score.t came out at 0.2189. On the same count and under the same terms, the result for `CO[C@]12C[C@@H](COC(=O)c3cncc(Br)c3)CN(C)[C@@H]1Cc1cn(C)c3cccc2c13` [Nicergoline] reads −0.2131.

As for `O=C(Nc1ccc([N+](=O)[O-])cc1Cl)c1cc(Cl)ccc1O` [Niclosamide], the z.score.t is −1.794. `O=C(NCCO[N+](=O)[O-])c1cccnc1` [Nicorandil]: the z.score.t worked out at 0.599.

In the case of `Cc1c(NC(=O)c2cccnc2)c(=O)n(-c2ccccc2)n1C` [Nifenazone], the z.score.t is reported as −0.2425. As for `O=C(O)c1cccnc1Nc1cccc(C(F)(F)F)c1` [Niflumic acid], the z.score.t was found to be 0.5856.

As to `O=C(N/N=C/c1ccc([N+](=O)[O-])o1)c1ccc(O)cc1` [Nifuroxazide], the z.score.t is recorded as 0.8023. Still for that read-out and setting: the result for `CC1CS(=O)(=O)CCN1/N=C/c1ccc([N+](=O)[O-])o1` (stereo not drawn) [Nifurtimox] reads 1.522; that for `CC1(C)NC(=O)N(c2ccc([N+](=O)[O-])c(C(F)(F)F)c2)C1=O` [Nilutamide], 0.1244. On to `CS(=O)(=O)Nc1ccc([N+](=O)[O-])cc1Oc1ccccc1` [Nimesulide], for which the z.score.t stood at 2.111.

`COCCOC(=O)C1=C(C)NC(C)=C(C(=O)OC(C)C)C1c1cccc([N+](=O)[O-])c1` (stereo not drawn) [Nimodipine]: the z.score.t is −1.245. Regarding `O=C1NCCN1c1ncc([N+](=O)[O-])s1` [Niridazole], the z.score.t is 2.422. On to `COC(=O)C1=C(C)NC(C)=C(C(=O)OCC(C)C)C1c1ccccc1[N+](=O)[O-]` (stereo not drawn) [Nisoldipine], for which the z.score.t was −0.5992.

For the compound `CCOC(=O)C1=C(C)NC(C)=C(C(=O)OC)C1c1cccc([N+](=O)[O-])c1` (stereo not drawn) [Nitrendipine], the z.score.t came to 0.6177.

For `NC(=O)N/N=C/c1ccc([N+](=O)[O-])o1` [Nitrofural], the z.score.t is listed as 0.767. With `O=C1CN(/N=C/c2ccc([N+](=O)[O-])o2)C(=O)N1` [Nitrofurantoin], the z.score.t is −0.03449. Same read-out and setting: as for `CNC(=C[N+](=O)[O-])NCCSCc1csc(CN(C)C)n1` [Nizatidine], the figure is −0.0788; as for `COC(=O)Nc1nc2ccc(C(=O)c3cccs3)cc2[nH]1` [Nocodazole], −1.329.

With `CC(=O)O[C@]1(C(C)=O)CC[C@H]2[C@@H]3C=C(C)C4=CC(=O)CC[C@@H]4[C@H]3CC[C@@]21C` [Nomegestrol acetate], the z.score.t stood at 0.7296. With `CN1Cc2c(N)cccc2C(c2ccccc2)C1` (stereo not drawn) [Nomifensine maleate], the z.score.t is recorded as −0.004573.

As to `CNCCC=C1c2ccccc2C=Cc2ccccc21` [Norcyclobenzaprine], the z.score.t was 0.465. Still for that read-out and setting: the result for `C#C[C@]1(O)CC[C@H]2[C@@H]3CCC4=CC(=O)CC[C@@H]4[C@H]3CC[C@@]21C` [Norethindrone] reads 0.2479; that for `C#C[C@]1(O)CC[C@H]2[C@@H]3CCC4=C(CCC(=O)C4)[C@H]3CC[C@@]21C` [Norethynodrel], 1.857. For `CCn1cc(C(=O)O)c(=O)c2cc(F)c(N3CCNCC3)cc21` [Norfloxacin], the z.score.t was 0.3922.

For the compound `C#C[C@]1(O)CC[C@H]2[C@@H]3CCC4=CC(=O)CC[C@@H]4[C@H]3CC[C@@]21CC` [Norgestrel-(−)-D], the z.score.t is reported as 0.0116. Turning to `CNCCC=C1c2ccccc2CCc2ccccc21` [Nortriptyline hydrochloride], the z.score.t is −1.753. On the same count and under the same terms, the result for `COc1ccc2c(c1OC)C(=O)O[C@@H]2[C@H]1c2c(cc3c(c2OC)OCO3)CCN1C` [Noscapine] reads −0.3731. With `CO[C@@H]1[C@@H](OC(N)=O)[C@@H](O)[C@H](Oc2ccc3c(O)c(NC(=O)c4ccc(O)c(CC=C(C)C)c4)c(=O)oc3c2C)OC1(C)C` [Novobiocin sodium salt], the z.score.t is on record as 1.481. Same read-out and setting: as for `CC1COc2c(N3CCN(C)CC3)c(F)cc3c(=O)c(C(=O)O)cn1c23` (stereo not drawn) [Ofloxacin], the figure is −1.243; as for `CO[C@H]1C[C@H](O[C@H]2[C@H](C)[C@@H](O[C@@H]3O[C@H](C)C[C@H](N(C)C)[C@H]3O)[C@@H](C)C[C@@]3(CO3)C(=O)[C@H](C)[C@@H](O)[C@@H](C)[C@@H](C)OC(=O)[C@@H]2C)O[C@@H](C)[C@@H]1O` [Oleandomycin phosphate], −0.5417.

`COc1ccc2[nH]c([S+]([O-])Cc3ncc(C)c(OC)c3C)nc2c1` (stereo not drawn) [Omeprazole]: the z.score.t is recorded as 0.1344. Still for that read-out and setting: as for `Cc1nccn1CC1CCc2c(c3ccccc3n2C)C1=O` (stereo not drawn) [Ondansetron Hydrochloride], the figure is −0.3173; as for `Cc1ncc([N+](=O)[O-])n1CC(O)CCl` (stereo not drawn) [Ornidazole], 0.1446; as for `Cc1ccccc1C(OCCN(C)C)c1ccccc1` (stereo not drawn) [Orphenadrine hydrochloride], −1.003. Consider `CCN(CC)CCc1nc(-c2ccccc2)no1.O=C(O)CC(O)(CC(=O)O)C(=O)O` [Oxalamine citrate salt], for which the z.score.t was −0.3023. On the same count and under the same terms, the result for `CN1CCCN=C1/C=C/c1cccc(O)c1.O=C(O)c1cc2ccccc2c(Cc2c(O)c(C(=O)O)cc3ccccc23)c1O` [Oxantel pamoate] reads −0.3936; that for `O=C(O)CCc1nc(-c2ccccc2)c(-c2ccccc2)o1` [Oxaprozin], 0.0827. As to `CN(C(=O)CN(CCO)CC(=O)N(C)C(C)(C)Cc1ccccc1)C(C)(C)Cc1ccccc1` [Oxethazaine], the z.score.t is reported as −1.253. For the compound `CCn1cc(C(=O)O)c(=O)c2cc3c(cc21)OCO3` [Oxolinic acid], the z.score.t turned out to be 1.315. On the same count and under the same terms, as for `C=CCOc1ccccc1OCC(O)CNC(C)C` (stereo not drawn) [Oxprenolol hydrochloride], the figure is −1.046; as for `COc1ccc(C(=O)c2ccccc2)c(O)c1` [Oxybenzone], −0.6594. Take `CCN(CC)CC#CCOC(=O)C(O)(c1ccccc1)C1CCCCC1` (stereo not drawn) [Oxybutynin chloride]: the z.score.t was −0.7013. Still for that read-out and setting: as for `Cc1cc(C(C)(C)C)c(O)c(C)c1CC1=NCCN1` [Oxymetazoline hydrochloride], the figure is −0.7524; as for `CCCCC1C(=O)N(c2ccccc2)N(c2ccc(O)cc2)C1=O` (stereo not drawn) [Oxyphenbutazone], −0.8111; as for `CN(C)[C@@H]1C(O)=C(C(N)=O)C(=O)[C@@]2(O)C(O)=C3C(=O)c4c(O)cccc4[C@@](C)(O)[C@H]3[C@H](O)[C@@H]12` [Oxytetracycline dihydrate], −0.09426. The same measure, in the same setting: as for `O=C(O)/C=C/c1ccc(Cn2ccnc2)cc1` [Ozagrel hydrochloride], the figure is −1.148; as for `CC(=O)O[C@H]1C(=O)[C@@]2(C)[C@H]([C@H](OC(=O)c3ccccc3)[C@]3(O)C[C@H](OC(=O)[C@H](O)[C@@H](NC(=O)c4ccccc4)c4ccccc4)C(C)=C1C3(C)C)[C@]1(OC(C)=O)CO[C@@H]1C[C@@H]2O` [Paclitaxel], −1.418; as for `COc1cc2c(cc1OC)-c1cc3ccc(OC)c(OC)c3c[n+]1CC2` [Palmatine chloride], 0.5822. For `CC(=O)O[C@H]1C[C@@H]2CC[C@@H]3[C@H](CC[C@@]4(C)[C@H]3C[C@H]([N+]3(C)CCCCC3)[C@@H]4OC(C)=O)[C@@]2(C)C[C@@H]1[N+]1(C)CCCCC1` [Pancuronium bromide], the z.score.t was 0.1543. Still for that read-out and setting: the result for `CC(C)(CO)[C@@H](O)C(=O)NCCCO` [Panthenol (D)] reads 0.6517; that for `CC(C)(CO)[C@@H](O)C(=O)NCCC(=O)O` [Pantothenic acid calcium salt monohydrate], −0.9817; that for `COc1ccc(Cc2nccc3cc(OC)c(OC)cc23)cc1OC` [Papaverine hydrochloride], 0.1556. Regarding `C#CCN(C)Cc1ccccc1` [Pargyline hydrochloride], the z.score.t was 0.7789. Consider `NC[C@@H]1O[C@H](O[C@H]2[C@@H](O)[C@H](O[C@@H]3[C@@H](O)[C@H](N)C[C@H](N)[C@H]3O[C@H]3O[C@H](CO)[C@@H](O)[C@H](O)[C@H]3N)O[C@@H]2CO)[C@H](N)[C@@H](O)[C@@H]1O` [Paromomycin sulfate], for which the z.score.t is listed as −1.074. The same measure, in the same setting: the result for `Fc1ccc([C@@H]2CCNC[C@H]2COc2ccc3c(c2)OCO3)cc1` [Paroxetine Hydrochloride] reads −1.138. With `CN1C(C)(C)CCCC1(C)C` [Pempidine tartrate], the z.score.t is −0.5583.

Values taken from patent publication US20260053861A1, “CELL COMPOSITIONS AND METHODS OF USING THE SAME” (THE REGENTS OF THE UNIVERSITY OF CALIFORNIA, priority 2022, published 2026).
